Source: patent US20240374691A1, “GLP-1R AGONISTS FOR USE IN A TREATMENT OF NEUROLOGIAL IMPAIRMENT ASSOCIATED WITH VIRAL INFECTION” (Neuraly, Inc., priority 2021, published 2024)
Like-named read-outs stand apart in the source and are kept apart here.

Legend:
[1] = in vivo; cited from earlier work
[2] = test system: Tg models of Alzheimer's Disease; assay: Tg models of Alzheimer's Disease (AD); format: in vivo
[3] = in vivo
[4] = test system: activated microglia; assay: Microglial activation in vivo after intrastriatal α-synuclein PFF injection; parameters: species or system C57BL6 mice; settings: 3 mg/kg s.c. twice a week for 5 months, PFF-injected mice, FIGS. 2A-2B
Description: Mice were perfused and brain tissues collected to allow analysis of activated microglia and cytokine levels following treatment.

[5] = in vivo; remark: listed apart in the source
[6] = test system: primary microglia; assay: Pro-inflammatory cytokine production by primary microglia in vitro (ELISA); format: cell-based; settings: NLY01 vs PBS
Method: Production of pro-inflammatory cytokines is a marker for microglial activation. Chronic microglial activation is pathogenic. […] Cytokine levels were determined using ELISA. Bars indicate mean±s.e.m. (n=3).

Substance	half-life [1]	amyloid aggregation and tau formation [2]	memory impairment [2]	microglia activation and population of reactive astrocytes in the AD brain [2]	blood-brain barrier traversal [3]	Iba-1+ activated microglia in the brain (Iba-1 intensity, microglia density) [4]	half-life [5]	cytokine production by microglia ([6]; absence of activation)	pro-inflammatory cytokine levels (C1q, IL1α, TNF-α, IL1β) ([6]; activated microglia, FIGS. 1A-1D)
Albiglutide: dipeptidyl peptidase-4-resistant glucagon-like peptide-1 dimer fused to human albumin	four to seven	–	–	–	–	–	–	–	–
NLY01: long-acting PEGylated form of exenatide; PEG 50,000 Da site-specifically conjugated to exenatide peptide	–	reduced	ameliorated	significantly inhibited	traverses the blood-brain barrier	reduced	88 h	not significantly affected	substantially reduced
